Tests used:
BCPAP xenograft = assay: In vivo antitumor activity; conditions: NSG mice, i.v. every four days five times, 0.5 mg/kg Dox or Da, day 20, mean ± SD, n = 4
Description: (§1) All animal experiments were performed according to the protocol approved by the Animal Care and Use Committee of the Tianjin Medical University Cancer Institute and Hospital. NSG mice (5 weeks, female) were purchased from Gempharmatech Co., Ltd. (Jiangsu, China). […] The body weight and tumor size of each mouse were monitored and recorded every two days during the treatment process of 20 days. The tumor volume (V) was measured with a digital caliper and calculated using the equation: V= (L×W^2)/2, where W and L refer to the […] diameters of the tumors, respectively. At the end of the experiment, the mice were euthanized, and the tumor tissues and main organs (heart, liver, spleen, lung, and kidney) were photographed, weighed, and collected. Furthermore, the collected ex vivo tumors and main organs were fixed with 4% paraformaldehyde for the subsequent hematoxylin and eosin (H&E), terminal deoxynucleotidyl transferase-mediated deoxyuridine triphosphate nick end labeling (TUNEL), and immunohistochemical staining, including Ki67, BRAF V600E, p-ERK, Bcl-2, Bax and Cleaved-Caspase 3. Blood was obtained from the mouse eye socket for blood biochemistry and routine blood analysis, which was compared with the blank group without tumor inoculation.

BCPAP cells [1] = assay: In vitro cytotoxicity, MTT assay; type: cell-based; conditions: Homo sapiens, 48 h, Da/Dox mass ratio 1:1, value given for Dox, n = 3
Description: The cytotoxicity of peptides, free agents, and the co-assemblies towards BCPAP and L02 cells was evaluated using the standard MTT assay. Briefly, the cells were seeded into 96-well plates at a density of 8×10^3 cells per well in 100μL of DMEM medium containing 10% FBS and 1% penicillin-streptomycin. After overnight pre-incubation, the cells were treated with the compound, free agents, and co-assemblies at different concentrations for 48 h. Untreated tumor cells were used as controls. Subsequently, the medium was replaced with an MTT solution (100 μL, 0.5 mg/mL) and further cultured for 4 h. Finally, the supernatant was removed and 100 μL of DMSO was added to each well to dissolve the purple crystals. Cell viability was measured using a microplate reader by recording the absorbance of the formazan product at 570 nm.

BCPAP cells [2] = assay: Cell apoptosis analysis, Annexin V-APC/7-AAD flow cytometry; type: cell-based, human; conditions: 36 h, 0.5 µM (Dox or Da)
Description: Apoptosis in BCPAP cells was measured using an Annexin V-APC/7-AAD Apoptosis Detection Kit. Briefly, BCPAP cells in DMEM were seeded into 6-well plates at a density of 3×10^5 cells per well and incubated overnight. After treatment with PBS and Dox concentration of 0.5 µM for 36 h, the cells were trypsinized, collected, washed twice with cold PBS, and centrifuged at 1500 rpm for 5 min. The precipitated cells were resuspended in 500 μL Annexin V-APC binding buffer and incubated with 5 μL Annexin V-APC and 5 μL 7-AAD at room temperature for 15 min in the dark. The samples were then analyzed using a flow cytometer.

[3] = Body weight and serum ALT in the antitumor study; type: in vivo; conditions: tumor-bearing NSG mice, n = 4
Description: as §1

SMILES	tumor weight at the end of the experiment (BCPAP xenograft) [mg]	IC50 (BCPAP cells [1]) [nM]	total apoptosis rate (BCPAP cells [2]) [%]	body weight ([3]; 0.5 mg/kg i.v. every four days five times, 20 days)	serum glutamic pyruvic transaminase (ALT) level ([3]; end of the antitumor experiment)
CC(C)(C)c1nc(-c2cccc(NS(=O)(=O)c3c(F)cccc3F)c2F)c(-c2ccnc(N)n2)s1 [Da, dabrafenib]	459.6 ± 43.2	2080	5.17		
COc1cccc2c1C(=O)c1c(O)c3c(c(O)c1C2=O)C[C@@](O)(C(=O)CO)C[C@@H]3O[C@H]1C[C@H](N)[C@H](O)[C@H](C)O1 [Dox, doxorubicin]	284.7 ± 36.4	1720	7.08	slight decrease	elevated ALT levels
